The IC50 is the midpoint of a concentration-inhibition curve.

For this test, the target named is α-glucosidase. In words: α-glucosidase inhibition assay (PNPG method). In kind it is biochemical, saccharomyces cerevisiae. The following applies: for IC50: absorbance at 405 nm, 37 °C, n = 3, read-out: α-glucosidase inhibitory activity IC50; for α-glycosidase inhibitory activity (in words): compared with positive control acarbose. An excerpt: Altogether, dimethyl sulfoxide (DMSO; Beijing Mr. Lai Treasure Company, Beijing, China); phosphate buffer solution (PBS; HyClone); centrifuge tubes, 96 cell culture plates, and other consumables (NEST Biotechnology Co. Ltd., Beijing, China); and α-glucosidase (Sigma Company, St. Louis, MO, USA) from saccharomyces cerevisiae were obtained for this study. […] The absorbance was read using a microplate reader (Varioskan LUX, Thermo, Waltham, MA, USA) at 405 nm. The results were obtained for at least three independent experiments. The inhibitory activity of α-glucosidase was determined by the PNPG method. […] Then, 20 μL of PNPG (2.5 mmol/L) was added, mixed by shock, and incubated in a 37 °C constant-temperature incubator for 15 min. Then, 80 μL of Na2CO3 […] solution was added to stop the reaction and the absorbance was measured by a microplate reader at 405 nm. […] Inhibition rate = [(OD negative − OD blank) − (OD sample − OD background)]/(OD negative − OD blank) × 100%.

For the compound `CC1=CCC2(C)CCC3(C)C(CCC4C5(C)CCC(O)C(C)(C)C5C(O)CC43C)C2C1C` (stereo not drawn) [Compound 8, 6β-pseudotaraxasterol], the IC50 was found to be 230 ± 13.5 nM and the “α-glycosidase inhibitory activity (in words)” value is recorded as “more significant activity than the positive control”.

With `CC1CCC2(C)CCC3(C)C4CCC5C(C)(C)C(O)CCC5(C)C4(C)CCC3(O)C2C1C` (stereo not drawn) [Compound 9, ursan-3β, 13β-diol], the IC50 came out at 230 ± 30.7 nM and the “α-glycosidase inhibitory activity (in words)” value is on record as “more significant activity than the positive control”. For `CC1(C)CC[C@]2(CO)CC[C@]3(C)C(=CCC4[C@@]5(C)C(=O)C[C@@H](O)C(C)(C)C5CC[C@]43C)C2C1` (stereo partly drawn) [Compound 1, 3α, 28-dihydroxy-12-oleanene-l-one], the IC50 was determined as 270 ± 49.9 nM and the “α-glycosidase inhibitory activity (in words)” value was “more significant activity than the positive control”. For `CC1(C)CC[C@]2(C)CC[C@]3(C)C(=CC=C4[C@]5(C)C(CC[C@]43C)C(C)(C)[C@@H](O)C[C@@H]5O)C2C1` (some centres unmarked) [Compound 3, juglangenin A], the IC50 came to 110 ± 22.2 nM. Turning to `C=C(C)[C@@H]1CC[C@]2(CO)CC[C@]3(C)C(CCC4[C@@]5(C)CC[C@H](O)C(C)(C)C5CC[C@]43C)C12` (some centres unmarked) [Compound 15, birch ester alcohol], the IC50 came out at 90 ± 4.5 nM and the “α-glycosidase inhibitory activity (in words)” value is listed as “best activity”. For the compound `CC1=CCC2(C)CCC3(C)C(CCC4C5(C)C(O)CC(O)C(C)(C)C5CCC43C)C2C1C` (stereo not drawn) [Compound 7, 20-taraxastene-1β, 3β -diol], the IC50 was found to be 560 ± 33.1 nM. For the compound `CC1=CC[C@]2(C)CC[C@]3(C)C(CCC4[C@@]5(C)CCC(=O)C(C)(C)C5CC[C@]43C)C2[C@H]1C` (some centres unmarked) [Compound 13, ψ-taraxasterone], the IC50 amounted to 260 ± 38.3 nM.
